Assays:
[1] = target: T1, Type-1 angiotensin II receptor (Homo sapiens, UniProt P30556)
T1 sequence (P30556 whole entry): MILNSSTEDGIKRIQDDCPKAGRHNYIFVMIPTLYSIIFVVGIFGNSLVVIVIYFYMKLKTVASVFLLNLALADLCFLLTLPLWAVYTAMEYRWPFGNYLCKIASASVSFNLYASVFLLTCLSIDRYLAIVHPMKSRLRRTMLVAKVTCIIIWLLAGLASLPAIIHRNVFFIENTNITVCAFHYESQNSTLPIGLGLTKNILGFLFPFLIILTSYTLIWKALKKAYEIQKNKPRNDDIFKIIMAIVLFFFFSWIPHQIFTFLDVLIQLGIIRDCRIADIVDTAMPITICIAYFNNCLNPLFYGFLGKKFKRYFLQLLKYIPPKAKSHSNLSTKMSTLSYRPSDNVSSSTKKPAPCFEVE

[2] = target: T2, 5-hydroxytryptamine receptor 3A (Homo sapiens, UniProt P46098); format: functional
T2 sequence (P46098 whole entry): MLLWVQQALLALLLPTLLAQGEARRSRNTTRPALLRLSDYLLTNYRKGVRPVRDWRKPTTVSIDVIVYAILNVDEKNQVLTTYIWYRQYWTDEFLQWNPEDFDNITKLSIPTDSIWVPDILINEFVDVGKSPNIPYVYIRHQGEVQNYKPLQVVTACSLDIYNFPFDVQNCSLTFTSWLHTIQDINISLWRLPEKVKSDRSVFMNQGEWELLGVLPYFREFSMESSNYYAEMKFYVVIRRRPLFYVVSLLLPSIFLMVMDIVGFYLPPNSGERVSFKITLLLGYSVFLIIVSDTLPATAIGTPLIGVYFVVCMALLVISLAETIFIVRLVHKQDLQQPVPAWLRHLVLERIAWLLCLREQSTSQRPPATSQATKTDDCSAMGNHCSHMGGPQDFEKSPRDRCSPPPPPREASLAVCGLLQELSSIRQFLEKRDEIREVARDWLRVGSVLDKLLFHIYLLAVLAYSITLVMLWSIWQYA

[3] = target: T3, Adenosine receptor A3 (Homo sapiens, UniProt P0DMS8)
T3 sequence (P0DMS8 whole entry): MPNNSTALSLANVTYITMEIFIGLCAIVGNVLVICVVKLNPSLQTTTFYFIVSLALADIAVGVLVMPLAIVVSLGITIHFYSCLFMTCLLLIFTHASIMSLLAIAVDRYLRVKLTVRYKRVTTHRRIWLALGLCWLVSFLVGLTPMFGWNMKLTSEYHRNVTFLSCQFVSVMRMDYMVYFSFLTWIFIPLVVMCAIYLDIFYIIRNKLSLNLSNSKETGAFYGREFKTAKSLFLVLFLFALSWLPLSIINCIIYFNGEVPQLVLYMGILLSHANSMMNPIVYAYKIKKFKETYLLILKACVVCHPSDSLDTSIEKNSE

[4] = target: Histamine H2 receptor (Homo sapiens, UniProt P25021); format: functional, cell-based
[5] = target: Sodium-dependent dopamine transporter (Homo sapiens, UniProt Q01959)
[6] = target: Growth hormone secretagogue receptor type 1 (Homo sapiens, UniProt Q92847)
[7] = target: Muscarinic acetylcholine receptor M3 (Homo sapiens, UniProt P20309)
[8] = target: T4, Progesterone receptor (Homo sapiens, UniProt P06401); format: functional
T4 sequence (P06401 whole entry): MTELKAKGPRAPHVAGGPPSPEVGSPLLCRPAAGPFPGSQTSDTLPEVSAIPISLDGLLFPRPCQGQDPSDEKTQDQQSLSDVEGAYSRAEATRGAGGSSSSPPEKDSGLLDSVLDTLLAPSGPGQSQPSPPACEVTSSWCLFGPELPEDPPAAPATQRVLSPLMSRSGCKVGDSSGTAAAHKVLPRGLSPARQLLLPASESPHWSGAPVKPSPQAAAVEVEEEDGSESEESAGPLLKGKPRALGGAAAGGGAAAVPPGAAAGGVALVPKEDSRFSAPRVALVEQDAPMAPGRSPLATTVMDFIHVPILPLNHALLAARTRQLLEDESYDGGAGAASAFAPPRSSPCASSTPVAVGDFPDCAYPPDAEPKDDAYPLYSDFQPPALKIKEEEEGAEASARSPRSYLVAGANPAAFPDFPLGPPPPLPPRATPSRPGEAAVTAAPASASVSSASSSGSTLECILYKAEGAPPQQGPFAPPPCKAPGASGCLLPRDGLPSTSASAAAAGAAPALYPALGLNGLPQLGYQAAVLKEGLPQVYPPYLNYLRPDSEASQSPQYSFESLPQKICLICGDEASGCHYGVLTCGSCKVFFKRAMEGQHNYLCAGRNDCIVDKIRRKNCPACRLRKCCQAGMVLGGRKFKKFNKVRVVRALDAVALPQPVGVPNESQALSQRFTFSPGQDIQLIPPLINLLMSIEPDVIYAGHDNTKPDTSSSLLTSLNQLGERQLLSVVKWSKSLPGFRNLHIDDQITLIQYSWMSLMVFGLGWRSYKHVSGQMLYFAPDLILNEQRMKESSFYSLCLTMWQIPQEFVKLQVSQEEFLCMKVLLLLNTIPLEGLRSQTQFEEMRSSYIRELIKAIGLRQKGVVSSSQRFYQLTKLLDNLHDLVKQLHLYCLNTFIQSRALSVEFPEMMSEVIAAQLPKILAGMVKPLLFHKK

[9] = target: T5, Alpha-2B adrenergic receptor (Homo sapiens, UniProt P18089)
T5 sequence (P18089 whole entry): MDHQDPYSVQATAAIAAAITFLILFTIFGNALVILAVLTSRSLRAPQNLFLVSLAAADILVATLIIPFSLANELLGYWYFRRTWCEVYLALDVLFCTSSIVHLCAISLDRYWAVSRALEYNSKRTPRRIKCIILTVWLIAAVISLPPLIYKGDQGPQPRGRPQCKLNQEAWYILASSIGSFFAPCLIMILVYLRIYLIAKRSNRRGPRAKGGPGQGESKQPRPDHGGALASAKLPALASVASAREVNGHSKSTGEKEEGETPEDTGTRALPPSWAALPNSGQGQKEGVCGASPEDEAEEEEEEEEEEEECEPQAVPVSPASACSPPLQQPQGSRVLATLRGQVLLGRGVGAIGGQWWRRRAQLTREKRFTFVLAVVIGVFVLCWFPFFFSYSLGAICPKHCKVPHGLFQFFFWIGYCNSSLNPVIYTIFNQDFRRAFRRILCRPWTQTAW
Further: assay procedure not described here.

Growth hormone secretagogue receptor type 1, sequence (Q92847 whole entry): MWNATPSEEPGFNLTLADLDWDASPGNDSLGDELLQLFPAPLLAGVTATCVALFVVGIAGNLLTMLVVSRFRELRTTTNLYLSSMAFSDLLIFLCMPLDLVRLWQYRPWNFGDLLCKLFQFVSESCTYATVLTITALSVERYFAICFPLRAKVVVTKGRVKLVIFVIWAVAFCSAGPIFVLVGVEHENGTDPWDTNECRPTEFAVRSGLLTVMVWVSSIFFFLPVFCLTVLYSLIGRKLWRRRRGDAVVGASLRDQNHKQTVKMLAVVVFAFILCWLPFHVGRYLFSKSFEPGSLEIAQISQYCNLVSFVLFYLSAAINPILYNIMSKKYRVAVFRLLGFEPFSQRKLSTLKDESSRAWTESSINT
Sodium-dependent dopamine transporter, sequence (Q01959 whole entry): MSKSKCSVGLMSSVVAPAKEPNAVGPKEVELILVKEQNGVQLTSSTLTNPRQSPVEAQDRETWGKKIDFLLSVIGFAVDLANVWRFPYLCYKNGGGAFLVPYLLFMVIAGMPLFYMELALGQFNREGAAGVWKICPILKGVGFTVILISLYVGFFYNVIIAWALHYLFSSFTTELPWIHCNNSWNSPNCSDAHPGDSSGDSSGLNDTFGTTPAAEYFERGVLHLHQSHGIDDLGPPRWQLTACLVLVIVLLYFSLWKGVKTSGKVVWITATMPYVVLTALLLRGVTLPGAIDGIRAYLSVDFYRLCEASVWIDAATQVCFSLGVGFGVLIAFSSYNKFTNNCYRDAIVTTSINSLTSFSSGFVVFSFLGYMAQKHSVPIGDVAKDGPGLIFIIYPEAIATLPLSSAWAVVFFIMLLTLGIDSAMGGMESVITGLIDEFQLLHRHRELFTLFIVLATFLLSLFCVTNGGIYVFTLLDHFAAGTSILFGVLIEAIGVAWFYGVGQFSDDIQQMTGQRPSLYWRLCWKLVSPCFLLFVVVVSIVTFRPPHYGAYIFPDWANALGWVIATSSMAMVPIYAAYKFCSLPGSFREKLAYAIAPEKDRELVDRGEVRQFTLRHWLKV
Histamine H2 receptor, sequence (P25021 whole entry): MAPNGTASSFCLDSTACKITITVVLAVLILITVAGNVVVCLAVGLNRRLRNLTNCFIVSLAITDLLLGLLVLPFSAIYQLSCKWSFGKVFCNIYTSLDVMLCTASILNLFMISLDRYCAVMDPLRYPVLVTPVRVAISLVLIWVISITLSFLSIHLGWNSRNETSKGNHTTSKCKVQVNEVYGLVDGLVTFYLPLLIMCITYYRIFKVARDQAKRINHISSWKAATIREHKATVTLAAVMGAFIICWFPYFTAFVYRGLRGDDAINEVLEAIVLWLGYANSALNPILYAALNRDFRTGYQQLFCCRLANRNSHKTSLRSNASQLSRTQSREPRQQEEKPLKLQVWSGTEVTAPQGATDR
Muscarinic acetylcholine receptor M3, sequence (P20309 whole entry): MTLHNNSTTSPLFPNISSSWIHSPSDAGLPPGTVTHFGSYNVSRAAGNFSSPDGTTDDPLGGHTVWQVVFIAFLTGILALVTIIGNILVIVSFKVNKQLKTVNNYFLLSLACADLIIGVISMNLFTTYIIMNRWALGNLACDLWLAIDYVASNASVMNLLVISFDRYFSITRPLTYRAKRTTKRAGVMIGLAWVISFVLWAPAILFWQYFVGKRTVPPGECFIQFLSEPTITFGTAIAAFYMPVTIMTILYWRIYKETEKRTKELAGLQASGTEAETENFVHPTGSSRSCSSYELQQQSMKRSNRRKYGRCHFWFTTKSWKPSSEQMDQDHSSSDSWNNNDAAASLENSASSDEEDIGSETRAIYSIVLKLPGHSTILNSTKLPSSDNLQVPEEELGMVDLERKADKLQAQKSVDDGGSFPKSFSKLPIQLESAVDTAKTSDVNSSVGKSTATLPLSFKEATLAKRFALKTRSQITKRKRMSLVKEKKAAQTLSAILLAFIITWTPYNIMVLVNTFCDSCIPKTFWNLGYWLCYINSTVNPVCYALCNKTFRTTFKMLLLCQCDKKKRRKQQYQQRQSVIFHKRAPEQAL

## C=CCC1(C(C)CC)C(=O)NC(=O)NC1=O (stereo unspecified) [TALBUTAL]
[1]
  AC50: > 10 µM
[2]
  AC50: > 30 µM
[3]
  AC50: > 10 µM
[4]
  AC50: > 10 µM
[5]
  AC50: > 10 µM
[6]
  AC50: > 10 µM
[7]
  AC50: > 30 µM
[8]
  AC50: > 10 µM
[9]
  AC50: > 10 µM

## COC(=O)C1=C(C)NC(C)=C(C(=O)OC(C)(C)CN(C)CCC(c2ccccc2)c2ccccc2)C1c1cccc([N+](=O)[O-])c1 (stereo unspecified) [LERCANIDIPINE]
[1]
  AC50: > 30 µM
[2]
  AC50: > 30 µM
[3]
  AC50: 8.8 µM
[4]
  AC50: > 30 µM
[5]
  AC50: 35.7 µM
[6]
  AC50: > 30 µM
[7]
  AC50: > 30 µM
[8]
  AC50: > 30 µM
[9]
  AC50: > 30 µM

## CC(=O)O[C@H]1CC[C@@]2(C)C(=CC[C@@H]3[C@@H]2CC[C@]2(C)C(c4cccnc4)=CC[C@@H]32)C1 [ABIRATERONE ACETATE]
[1]
  AC50: > 30 µM
[2]
  AC50: > 30 µM
[3]
  AC50: > 30 µM
[4]
  AC50: > 30 µM
[5]
  AC50: > 30 µM
[6]
  AC50: > 30 µM
[7]
  AC50: > 30 µM
[8]
  AC50: > 30 µM
[9]
  AC50: > 30 µM

## CC(C)OC(=O)CCC/C=C\C[C@@H]1[C@@H](CC[C@@H](O)CCc2ccccc2)[C@H](O)C[C@@H]1O [LATANOPROST]
[1]
  AC50: > 30 µM
[2]
  AC50: > 30 µM
[3]
  AC50: > 30 µM
[4]
  AC50: > 30 µM
[5]
  AC50: > 30 µM
[6]
  AC50: > 30 µM
[7]
  AC50: > 30 µM
[8]
  AC50: > 30 µM
[9]
  AC50: > 30 µM

## O=C(O)C1=C(CSc2nnnn2CS(=O)(=O)O)CS[C@@H]2[C@H](NC(=O)[C@H](O)c3ccccc3)C(=O)N12 [CEFONICID]
[1]
  AC50: > 30 µM
[2]
  AC50: > 30 µM
[3]
  AC50: > 30 µM
[4]
  AC50: > 30 µM
[5]
  AC50: > 30 µM
[6]
  AC50: > 30 µM
[7]
  AC50: > 30 µM
[8]
  AC50: > 30 µM
[9]
  AC50: > 30 µM

## C=CCC1(CC(C)C)C(=O)NC(=O)NC1=O [BUTALBITAL]
[1]
  AC50: > 30 µM
[2]
  AC50: > 30 µM
[3]
  AC50: > 10 µM
[4]
  AC50: > 30 µM
[5]
  AC50: > 10 µM
[6]
  AC50: > 10 µM
[7]
  AC50: > 30 µM
[8]
  AC50: > 10 µM
[9]
  AC50: > 30 µM

## CCOC(=O)[C@H](CCc1ccccc1)N[C@@H](C)C(=O)N1C(=O)N(C)C[C@H]1C(=O)O
[1]
  AC50: > 30 µM
[2]
  AC50: > 30 µM
[3]
  AC50: > 30 µM
[4]
  AC50: > 30 µM
[5]
  AC50: > 30 µM
[6]
  AC50: > 30 µM
[7]
  AC50: > 30 µM
[8]
  AC50: > 30 µM
[9]
  AC50: > 30 µM

## CCC1(CC)C(=O)NCC(C)C1=O (stereo unspecified) [METHYPRYLON]
[1]
  AC50: > 30 µM
[2]
  AC50: > 30 µM
[3]
  AC50: > 30 µM
[4]
  AC50: > 30 µM
[5]
  AC50: > 30 µM
[6]
  AC50: > 30 µM
[7]
  AC50: > 30 µM
[8]
  AC50: > 30 µM
[9]
  AC50: > 30 µM

## CC(CC(c1ccccc1)c1ccccc1)NC(C)(C)C (stereo unspecified) [TERODILINE]
[1]
  AC50: > 30 µM
[2]
  AC50: > 30 µM
[3]
  AC50: > 30 µM
[4]
  AC50: > 30 µM
[5]
  AC50: 20 µM
[6]
  AC50: > 30 µM
[7]
  AC50: 1.1 µM
[8]
  AC50: > 30 µM
[9]
  AC50: 16 µM
